Assay results taken from patent publication US20230140838A9, “NOVEL ACTIVITY-BASED PROBES FOR NEUTROPHIL ELASTASE AND THEIR USE” (Takeda Pharmaceutical Company Limited, priority 2018, published 2023).

Assays:
neutrophil elastase (NE) = target: T1, neutrophil elastase (NE) (Homo sapiens, UniProt P08246); test: Recombinant protease labeling / fluorescent SDS-PAGE, neutrophil elastase; format: binding; conditions: 0.1-1 μM probe
T1 construct: purchased Elastin Products Company
T1 sequence (P08246 30-267): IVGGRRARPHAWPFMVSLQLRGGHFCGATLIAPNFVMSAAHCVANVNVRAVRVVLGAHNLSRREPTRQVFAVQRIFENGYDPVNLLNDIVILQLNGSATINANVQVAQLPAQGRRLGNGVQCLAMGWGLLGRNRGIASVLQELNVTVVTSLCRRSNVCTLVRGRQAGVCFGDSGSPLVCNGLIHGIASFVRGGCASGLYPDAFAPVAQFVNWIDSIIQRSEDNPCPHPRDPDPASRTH

[1] = system: serine proteases in lysates prepared from mouse pancreas; test: Ex vivo labeling of mouse pancreas lysates, in-gel fluorescence and immunoprecipitation; format: binding
Method: (§1) Tubes were rocked overnight at 4° C.

NE [2] = target: T2, NE (Mus musculus, UniProt Q3UP87); format: binding
T2 sequence (Q3UP87 29-247 limits assumed): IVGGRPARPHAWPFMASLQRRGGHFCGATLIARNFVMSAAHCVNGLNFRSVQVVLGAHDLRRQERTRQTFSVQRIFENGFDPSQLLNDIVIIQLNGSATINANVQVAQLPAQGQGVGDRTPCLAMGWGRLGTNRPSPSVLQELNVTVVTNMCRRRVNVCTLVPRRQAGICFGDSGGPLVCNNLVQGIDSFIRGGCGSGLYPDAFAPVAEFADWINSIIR

NE [3] = test: Ex vivo labeling of human colon mucosal biopsy lysates (ulcerative colitis vs healthy); format: binding
Method: as §1
Human mucosal biopsies were obtained from individuals during colonoscopy procedures at Hotel Dieu Hospital in Kingston, Ontario, Canada (Table 1). Patients were well-characterized individuals with active ulcerative colitis (UC) or healthy individuals undergoing routine colonoscopy for cancer screening. For UC patients, biopsies were obtained from sites of active inflammation. Written and verbal consent was obtained prior to enrolment and all protocols were approved by the Queen's University Human Ethics Committee. Fresh biopsies were washed in PBS and then snap frozen for protease analysis as above.

NE [4] = target: T2, NE; format: binding; remark: listed apart in the source
NE [5] = system: NE
Method: PK105b or Cy5-V-DPP (0, 0.1, 0.5 or 1 μM) was added from a 100×DMSO stock, and reaction was left to occur at 37° C. for 30 minutes. Proteins were solubilized in 4× sample buffer (40% glycerol, 200 mM Tris-Cl [pH 6.8], 8% SDS, 0.04% bromophenol blue, 5% beta-mercaptoethanol), boiled for five minutes and resolved on a 15% SDS-PAGE gel. Probe labeling was detected by scanning the gel for Cy5 fluorescence on a Typhoon 5 flatbed laser scanner (GE Healthcare).
Bone marrow was obtained by flushing tibias and femurs from healthy C57BL/6J mice with PBS. Cells were washed and resuspended in PBS prior to sonication on ice. […] Total protein (60 μg, as measured by BCA assay, Pierce) was aliquoted in a total volume of 20 μl PBS, and probe labeling and SDS-PAGE was carried out as above.
Fluorescent Gels were Transferred to Nitrocellulose Membranes and Blotted Using the Turbo Blot system (BioRad). […] Binding was detected by scanning with the IRLong filter on a Typhoon 5 flatbed laser scanner (GE Healthcare).
PK105b-labeled lysates (boiled in sample buffer for five minutes) were divided into input and immunoprecipitation (IP) samples (100 μg each). […] Supernatants were then analyzed, alongside the input sample, by fluorescent SDS-PAGE as above. […]

SMILES: CCC(NC(=O)[C@@H]1CC2CCCCC2N1C(=O)[C@H](CCS(C)(=O)=O)NC(=O)[C@H](CCCCOCc1ccccc1)NC(=O)CCCCCN1/C(=C/C=C/C=C/C2=[N+](CC)c3ccc(S(=O)(=O)[O-])cc3C2(C)C)C(C)(C)c2cc(S(=O)(=O)O)ccc21)P(=O)(Oc1ccccc1)Oc1ccccc1 (stereo partly shown) [PK105b]
- potency of NE labeling compared between probes (neutrophil elastase (NE)): more potent than Cy5-V-DPP
- labeling of 25-KDa proteins in mouse pancreas lysates (in-gel fluorescence) ([1]; 0.1, 0.5 and 1 µM): strongly labeled
- targets of the probe identified by immunoprecipitation ([1]; labeled mouse pancreas lysates, antibodies to NE, PE, Try3): combination of NE, pancreatic elastase (PE), and trypsin 3
- ability to detect NE activity in tissue lysates compared between probes (NE [2]): clearly superior to Cy5-V-DPP
- binding to other species (off-target bands) (NE [2]): binding to several species in the 50-75-KDa range
- identity of the labeled band by immunoprecipitation with NE-specific antibody (NE [2]): confirmed to be NE
- labeling of the 25-KDa band in healthy distal colons and proximal regions of healthy and inflamed colons (NE [2]): virtually absent
- labeling of the 25-KDa species in distal colon lysates of TNBS-treated mice (NE [2]): clear labeling of a single protein at 25-KDa
- species of the 25-KDa NE doublet labeled by the probe (NE [2]): Only the lower species
- identity of labeled bands by immunoprecipitation with NE-specific antibody (NE [3]; UC biopsy lysates): confirmed to be NE
- labeling in active ulcerative colitis biopsies compared with healthy individuals (NE [3]; human colon mucosal biopsies, UC n=9, normal n=5): significant increase in labeling
- number of species labeled in human mucosal lysates (NE [3]; in-gel fluorescence): three species were labeled
- identity of the major 25-KDa species by immunoblotting and immunoprecipitation (NE [4]): confirmed to be NE
- labeling in infected lung tissue lysates compared with control lungs (NE [4]): significantly increased
- labeling in tumor tissues versus normal tongue tissues (NE [5]; HSC-3 xenograft, two weeks): clear labeling of a 25-KDa species in tumor tissues, but not normal tongue tissues
- labeling of other high-molecular weight species in tumor/tongue lysates (NE [5]; unidentified species): abundantly labeled
